Data: patent publication US8822383B2, “Germination-stimulant carbamate derivatives and process for preparation thereof” (National University Corporation KOBE UNIVERSITY, priority 2010, dated 2014)

What was measured:
[1] = system: Striga (Striga hermonthica) seeds; test: Test for Germination Stimulation Activity on Striga; assay type: in vivo; settings: conditioned Striga hermonthica seeds, 20 μl of 10 μM solution, 30° C., counted 24 hours later; no compound: 0%
Method: (§1) First, 10 μmol of each test compound was weighed and dissolved in 2 ml of acetone. Each solution was diluted with distilled water to obtain a 10 μM solution. Next, a bottom of a petri dish was covered with a filter paper, and conditioned seeds of Striga (Striga hermonthica) were placed on the filter paper, and then 20 μl of each diluted solution of test compound was applied to the seeds. For maintaining the humidity, a wet filter paper was prepared as long as water droplets were not dripped from the filter paper, and folded into four, and then placed onto the center of the petri dish. The petri dish was sealed with Parafilm®, and then covered with aluminum foil, and then incubated at 30° C. Twenty four (24) hours later, the number of germinated seeds was counted, and then a germination rate (%) was calculated by using the following formula: Germination rate(%)=(the number of germinated seeds/the total number of seeds)×100 The test compounds and the germination rates are shown in Tables 1 and 2. When no test compound was used in this test, the germination rate was 0%.

[2] = system: Orobanche (Orobanche minor) seeds; test: Test for Germination Stimulation Activity on Orobanche; assay type: in vivo; settings: conditioned Orobanche minor seeds, 20 μl of 10 μM solution, 30° C., counted 4 days after; no compound: 0%
Method: as §1, with “of Orobanche (Orobanche minor)” for “of Striga (Striga hermonthica)”, “C. Four (4) days after,” for “C. Twenty four (24) hours later,”, “Tables 3” for “Tables 1”, “and 4.” for “and 2.”

Row | Structure (SMILES) | Germination rate (%) [1] | Germination rate (%) [2]
1 | CC1=CC(OC(=O)Nc2ccccc2)OC1=O (stereo not shown) [Compound No. 1, 4-methyl-5-oxo-2,5-dihydrofuran-2-yl phenylcarbamate] | 2.6% | 38.8%
2 | CC1=CC(OC(=O)NCc2ccccc2)OC1=O (stereo not shown) [Compound No. 2, 4-methyl-5-oxo-2,5-dihydrofuran-2-yl benzylcarbamate] | 38.1% | 61.1%
3 | CC1=CC(OC(=O)NCCc2ccccc2)OC1=O (stereo not shown) [Compound No. 3, 4-methyl-5-oxo-2,5-dihydrofuran-2-yl phenethylcarbamate] | 54.0% | 66.9%
4 | CC1=CC(OC(=O)N(C)c2ccccc2)OC1=O (stereo not shown) [Compound No. 4, 4-methyl-5-oxo-2,5-dihydrofuran-2-yl methyl(phenyl)carbamate] | 53.5% | 66.3%
5 | CC1=CC(OC(=O)N(C)Cc2ccccc2)OC1=O (stereo not shown) [Compound No. 5, 4-methyl-5-oxo-2,5-dihydrofuran-2-yl benzyl(methyl)carbamate] | 48.4% | 75.2%
6 | CC1=CC(OC(=O)N(C)CCc2ccccc2)OC1=O (stereo not shown) [Compound No. 6, 4-methyl-5-oxo-2,5-dihydrofuran-2-yl 2-phenethyl(methyl)carbamate] | 28.0% | 30.4%
7 | CC1=CC(SC(=S)N(C)c2ccccc2)OC1=O (stereo not shown) [Compound No. 7, 4-methyl-5-oxo-2,5-dihydrofuran-2-yl methyl(phenyl)dithiocarbamate] | 32.6% | 15.3%
8 | CC1=CC(SC(=O)N(C)c2ccccc2)OC1=O (stereo not shown) [Compound No. 8, 4-methyl-5-oxo-2,5-dihydrofuran-2-yl methyl(phenyl)thiolcarbamate] | 12.0% | 5.4%
9 | CC1=CC(OC(=O)NCCc2cccc(C)c2C)OC1=O (stereo not shown) [Compound No. 9, 4-methyl-5-oxo-2,5-dihydrofuran-2-yl 2-(2,3-dimethylphenyl)ethylcarbamate] | 32.0% | 54.0%
10 | CC1=CC(OC(=O)NCCc2ccc(C)c(C)c2)OC1=O (stereo not shown) [Compound No. 10, 4-methyl-5-oxo-2,5-dihydrofuran-2-yl 2-(3,4-dimethylphenyl)ethylcarbamate] | 43.0% | 48.0%
11 | CC1=CC(OC(=O)NCCc2ccc3c(c2)OCO3)OC1=O (stereo not shown) [Compound No. 11, 4-methyl-5-oxo-2,5-dihydrofuran-2-yl 2-(3,4-methylenedioxyphenyl)ethylcarbamate] | 37.0% | 47.0%
